The values that follow come from patent publication US20050124647A1, “Tricyclic derivatives of indole with antiangiogenic activity” (Sigma-Tau Industrie Farmaceutiche Riunite S.p.A., priority 2000, published 2005).

Structures are written as SMILES. Read-outs that look alike come from different tables or passages of the source.

One data set concerns MCF-7/DX. Briefly: Antiproliferative activity vs resistant cell MCF-7/DX. The data set is classed as cell-based. The settings on record: Homo sapiens, MCF7/DX; resistant cell (doxorubicin-resistant, P-glycoprotein overexpressing); read-out: IC50 +/− SD, MCF-7/DX. The procedure: (§1) The test used was the sulforodamine B test used for screening anticancer products at the National Cancer Institute (Skehan, 1990). The molecules at scalar concentrations over a range from 500 μM to 0.97 μM, were incubated in parallel with different human cell lines for 24 hours. After removing the products, cell survival was investigated after another 48 hours with the NCI test. The antiproliferative capacity of the compounds was quantified in terms of IC50±SD (concentration of the molecule that inhibits 50% of cell survival) processed using a curve fitting program (De Lean et al., 1978).
(§2) The cytotoxicity of the molecules on tumour lines resistant to chemosensitising activity was assessed on various tumour cell lines overexpressing P-glycoprotein and resistant to doxorubicin (100-fold) and cross-resistant to daunorubicin, actinomycin D, mitoxantrone, vincristine, vinblastine, taxol, colchicine, and etoposide. The cytotoxicity of the products was assessed using the same test adopted for the sensitive tumour cells.

Data set [1] concerns BMEC. Briefly: Cytotoxicity on endothelial cells (BMEC). The data set is classed as cell-based, bovine.
The next data set deals with LoVo/DX. Briefly: Antiproliferative activity vs resistant cell LoVo/DX. The data set is classed as cell-based. The note with it: Homo sapiens, resistant cell (doxorubicin-resistant, P-glycoprotein overexpressing), read-out: IC50 +/− SD, LoVo/DX. The procedure:
as §1, §2

Data set [2] has as its system BMEC. Briefly: Chemotactic assay with the Boyden chamber on BMEC. The data set is classed as cell-based, bovine. The procedure:
For the antiangiogenic activity the chemotactic assay with the Boyden chamber was performed (Werner F., Goodwin R. H. and Leonard E. J., Journal of Immunological Methods 1980; 33, 239-247), using both bovine aortal endothelial cell (BAEC) cultures and bovine medullary endothelial cell (BMEC) cultures. The assays were performed at IC0 (maximum non-cytotoxic concentration) and the results expressed as % inhibition of migration across a porous filter in response to a chemotactic stimulus (1% bovine serum in DMEM culture medium). This finding was obtained by direct cell count under the optical microscope, and the percentage migration inhibition was calculated according to the formula (T−C/C)×100, where T=mean number of cells migrating in the sample and C=mean number of cells migrating in the control. The control consisted of cells which migrated towards the serum, not treated with the study molecules, and included in every chemotaxis experiment. The data refer to the readings of 5 microscopic fields/well in 4 independent chemotaxis wells per sample.

For `c1ccc(COc2ccc3[nH]cc(C4CCCCc5[nH]c6ccc(OCc7ccccc7)cc6c54)c3c2)cc1` (racemic) [ST1778, 5-(5″-benzyloxy-indol-3-yl)-5′-benzyloxy-indo[2,3a]-cycloheptan.], the IC50 in the data set on MCF-7/DX was 71 µM; in the data set with LoVo/DX, 65.1 µM. Besides, the “IC0 (maximum non-cytotoxic concentration)” value with BMEC [1] amounted to 25 µM.

In the case of `c1ccc2c(C3CCCCc4[nH]c5ccccc5c43)c[nH]c2c1` (racemic) [ST1621, 5-(indol-3-yl)-indo(2,3a]-cycloheptan.], the IC50 came out at 68.3 µM with MCF-7/DX and 23.8 µM with LoVo/DX. Also, in the data set on BMEC [1], the “IC0 (maximum non-cytotoxic concentration)” value turned out to be 0.1 µM.

As for `Oc1ccc2[nH]cc(C3CCCCc4c3[nH]c3ccc(O)cc43)c2c1` (racemic) [ST1783, 1-(5″-hydroxy-1H-indol-3-yl)-5′-hydroxy-indo[2,3a]-cycloheptan], the IC50 in the data set with MCF-7/DX came to 39 µM. Also, the “IC0 (maximum non-cytotoxic concentration)” value in the data set with BMEC [1] is 10 µM.

Consider `CC1(C)OCC(C2c3c([nH]c4ccccc34)C(c3c[nH]c4ccccc34)C3OC(C)(C)OC32)O1` (racemic) [ST1372, 1-(indol-3-yl)-2,3-O-isopropylidene-4-(2,3-O-isopropylidene-ethyl)-tetra-hydrocarbazole], for which the IC50 in the data set on MCF-7/DX came to 26.9 µM; in the data set on LoVo/DX, 26.3 µM.

For `c1ccc2c(C3CCCc4[nH]c5ccccc5c43)c[nH]c2c1` (racemic) [ST1729, 4-(1H-indol-3-yl)-tetrahydro-1H-carbazole], the “IC0 (maximum non-cytotoxic concentration)” value with BMEC [1] came to 25 µM.

Take `c1ccc(COc2ccc3[nH]cc(C4CCCCc5c4[nH]c4ccc(OCc6ccccc6)cc54)c3c2)cc1` (racemic) [ST1765, 1-(5″-benzyloxy-indol-3-yl)-5′-benzyloxy-indo[2,3a]-cycloheptan]: the IC50 in the data set on MCF-7/DX stood at 24.8 µM; in the data set with LoVo/DX, 17 µM.

Regarding `c1[nH]c2cc3c(cc2c1C1CCCc2c1[nH]c1cc4c(cc21)OCO4)OCO3` (racemic) [ST1751, 1-(5′,6′-methylendioxy-1H-indol-3-yl)-6,7-methylendioxy-tetrahydro-1H-carbazole], in the data set on MCF-7/DX, the IC50 was determined as 58.6 µM.

In the case of `c1[nH]c2cc3c(cc2c1C1CCCCc2c1[nH]c1cc4c(cc21)OCO4)OCO3` (racemic) [ST1749, 1-(5″,6″-methylendioxy-indol-3-yl)-5′,6′-methylendioxy-indo[2,3-a]-cycloeptane], the “IC0 (maximum non-cytotoxic concentration)” value in the data set with BMEC [1] came to 100 µM.

As to `c1ccc2c(C3CCCCc4c3[nH]c3ccccc43)c[nH]c2c1` (racemic) [ST1381, 1-(indol-3-yl)-indo[2,3a]-cycloheptan.], the “activity on chemotaxis of endothelial cells (in words)” value was “active” with BMEC [2] and “better anti-chemiotactic compound” in the data set with BMEC [2] (listed as ST 1381). Moreover, the figures for the IC50 in the data set on MCF-7/DX and with LoVo/DX were 28.4 µM and 25.2 µM, respectively. The “IC0 (maximum non-cytotoxic concentration)” value with BMEC [1] is 30 µM.
